Data set [1] deals with PBMC. Briefly: Permeability across human PBMC at 1 uM. The class given is ADME, cell-based.
The target in data set [2] is T1, Peptidyl-prolyl cis-trans isomerase FKBP1A (Homo sapiens, UniProt P62942). Kind of data set: Antagonist activity at recombinant human N-terminal His6-tagged FKBP12 expressed in Escherichia coli assessed as inhibition of FK506 mediated FKBP12 binding to calcineurin using […] pretreated for 1 hr followed by substrate addition measured after 1 hr by biomol green dye based spectrophotometric method.
T1 sequence (P62942 whole entry): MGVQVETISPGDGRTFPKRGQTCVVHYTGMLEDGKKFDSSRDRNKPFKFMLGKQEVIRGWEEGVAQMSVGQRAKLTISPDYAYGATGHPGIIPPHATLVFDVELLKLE

The test system of data set [3] is PBMC. Kind of data set: Antiproliferative activity against concanavalin A stimulated human PBMC at 1 to 2 ug/ml measured after 72 hrs by CellTiter-Glo assay. The class given is cell-based. On the technique in general: Cellular ATP, detected with luciferase, serves as a proxy for viable cell number.
Data set [4] concerns Aspergillus fumigatus. Briefly: Antifungal activity against Aspergillus fumigatus assessed as spore germination at 12.5 ug/ml measured after 48 hrs in presence of FK506 by broth dilution method relative to control. The class given is functional.
Data set [5] concerns the target T1, Peptidyl-prolyl cis-trans isomerase FKBP1A. Kind of data set: Antagonist activity at recombinant human N-terminal His6-tagged FKBP12 expressed in Escherichia coli assessed as inhibition of FKBP12 binding to calcineurin at […] using […] pretreated for 1 hr followed by substrate addition measured after 1 hr by biomol green dye based spectrophotometric method.

Data set [6] concerns Vero 76. Kind of data set: Cytotoxicity against African green monkey Vero 76 cells. To be noted: Chlorocebus sabaeus. Format: cell-based.
For data set [7], the system named is HepG2. Kind of data set: Cytotoxicity against human HepG2 cells. Format: cell-based.
In data set [8] the target is T1, Peptidyl-prolyl cis-trans isomerase FKBP1A. Briefly: Antagonist activity at human FKBP12 measured after 30 mins by fluorescein labelled SLF tracer based fluorescence polarization assay. On the technique in general: Polarisation of emitted light reports the rotation of a fluorescent probe.
In data set [9] the test system is PBMC. Briefly: Reversal of FK506-induced inhibition of cell proliferation in concanavalin A stimulated human PBMC at 1 uM measured after 72 hrs by CellTiter-Glo assay relative to control. Format: functional. The arrangement: scale not given: the % may be the effect or the level left.
Data set [10] deals with Jurkat. Kind of data set: Immunosuppressive activity in PMA/ionomycin stimulated human Jurkat T cells assessed as suppression of IL2 production pretreated for 15 to 30 mins followed by PMA/ionomycin addition measured after 18 to 20 hrs by ELISA. The class given is cell-based. (In general: In an ELISA, binding on a coated surface is turned into a signal by an enzyme label.)

The test system of data set [11] is Aspergillus fumigatus. Briefly: Antifungal activity against Aspergillus fumigatus up to 25 ug/ml measured after 48 hrs by broth dilution method. Format: functional.
The nature of data set [12]: Antagonist activity at Aspergillus fumigatus FKBP12 measured after 30 mins by fluorescein labelled SLF tracer based fluorescence polarization assay.
Data set [13] can be described thus: AUClast in mouse at 3 mg/kg, iv. Format: ADME, organism-based. Also noted: dose 3 mg/kg, time 0 - last, route intravenous. Conditions: in vivo.
Data set [14] is described as follows: Cmax in mouse at 10 mg/kg, po. Also noted: dose 10 mg/kg, route oral. Format: ADME, organism-based. To be noted: in vivo.
Data set [15] is described as follows: Clearance in mouse at 3 mg/kg, iv. Format: ADME, organism-based. To be noted: in vivo.
Data set [16] can be described thus: Terminal half-life in mouse at 3 mg/kg, iv. Conditions: in vivo, read-out: beta t1/2 (converted). The class given is ADME, organism-based.
Data set [17] relates to PBMC. Kind of data set: Reversal of FK506-induced inhibition of cell proliferation in concanavalin A stimulated human PBMC at 0.1 uM measured after 72 hrs by CellTiter-Glo assay. Format: functional, cell-based.
For data set [18], the system named is Aspergillus fumigatus. Kind of data set: Antifungal activity against Aspergillus fumigatus assessed as spore germination at 6.25 to 25 ug/ml measured after 48 hrs in presence of FK506 by broth dilution method. Format: functional.
Data set [19] can be described thus: AUClast in mouse at 10 mg/kg, po. The class given is ADME, organism-based. Also noted: dose 10 mg/kg, time 0 - last, route oral. To be noted: in vivo.
Data set [20] in a line: Volume of distribution at steady state in mouse at 3 mg/kg, iv. The class given is ADME, organism-based. Conditions: in vivo, read-out: Vdss.
A short description of data set [21]: Tmax in mouse at 10 mg/kg, po. Format: ADME, organism-based. To be noted: in vivo.
The subject of data set [22] is Aspergillus fumigatus. Kind of data set: Permeability across Aspergillus fumigatus at 12.5 ug/ml relative to human PBMC. The class given is ADME.

By IC50 is commonly meant the midpoint of a concentration-inhibition curve. The term AUC(0-t) denotes the area under the concentration-time curve up to a stated or last time point. As a reminder, the Cmax is the maximum level reached in the sampled fluid or tissue. The clearance is the rate of elimination divided by the concentration. One may read the Tmax as the time from dosing to the highest level.

Each structure is given as a SMILES string. The source made the active and inactive calls. The calls are words filed in the database; no cut-off is given here.

For the compound `CO[C@H]1C[C@@H](C)C/C(C)=C/[C@@H](CC(=O)N2CCN(C)CC2)C(=O)C[C@H](O)[C@@H](C)[C@@H](/C(C)=C/[C@@H]2CC[C@@H](O)[C@H](OC)C2)OC(=O)[C@@H]2CCCCN2C(=O)C(=O)[C@]2(O)O[C@H]1[C@@H](OC)C[C@H]2C`, in [1], the permeability is on record as 100%. In addition, the IC50 was 1100 nM in data set [2]; above 100000 nM in data set [6]; above 100000 nM in data set [7]; 12.6 nM in [8]; above 10000 nM in data set [10]; 16.8 nM in data set [12]. The Activity result in data set [3] is “Non-Toxic”; in data set [4] it was 43.1%; in data set [9], 102.8%. The inhibition result in data set [5] is “inactive”. In addition, the result in [11] was inactive.
Turning to `CC[C@@H]1/C=C(\C)C(O)[C@H](C)C[C@H](OC)[C@H]2O[C@@](O)(C(=O)C(=O)N3CCCC[C@H]3C(=O)O[C@H](/C(C)=C/[C@@H]3CC[C@@H](O)[C@H](OC)C3)[C@H](C)[C@@H](O)CC1=O)[C@H](C)C[C@@H]2OC` (some centres undefined), the results for the AUC(0-t) in data set [13] and in [19] were 787 ng·h/mL and 208 ng·h/mL, respectively. In data set [14], this compound had a Cmax of 184 ng/mL. In addition, in data set [15], the clearance is 60.8 mL/min/kg. For the same compound, the half-life in data set [16] was 66.6 min. Besides, the result in data set [17], in data set [18] and in data set [11] was inactive. The IC50 in [2] is 1310 nM; in data set [6], above 100000 nM; in data set [7], above 100000 nM; in data set [8], 6.8 nM; in data set [10], above 10000 nM; in [12], 18.5 nM. Besides, the Activity entry is recorded as “Non-Toxic” in data set [3], 83 - 86.8% in data set [4] and 78.7% in data set [9]. Further, the Vd in [20] came out at 2.58 L/kg. Moreover, the inhibition entry in data set [5] was “inactive”. For the same compound, in data set [21], the Tmax turned out to be 15 min.
With `CO[C@H]1C[C@@H](C)C/C(C)=C/[C@@H](CC(=O)N2CCCC2)C(=O)C[C@H](O)[C@@H](C)[C@@H](/C(C)=C/[C@@H]2CC[C@@H](OC(=O)N3CC(O)C3)[C@H](OC)C2)OC(=O)[C@@H]2CCCCN2C(=O)C(=O)[C@]2(O)O[C@H]1[C@@H](OC)C[C@H]2C`, the figures for the AUC(0-t) in [13] and in data set [19] were 2780 ng·h/mL and 1860 ng·h/mL, respectively. This compound had a Cmax in [14] of 814 ng/mL. Besides, in data set [15], the clearance is 16.1 mL/min/kg. For the same compound, the half-life in data set [16] was 81.6 min. Moreover, the Activity entry in data set [3] is on record as “Non-Toxic”; in data set [4], 22%; in data set [9], 63%. Further, in [20], the Vd is 1.35 L/kg. In addition, the inhibition entry in data set [5] is “inactive”. Also, the time of peak concentration (Tmax) in [21] came out at 30 min. In addition, the IC50 in data set [6] is above 100000 nM; in data set [7] it was above 100000 nM; in data set [8], 22.6 nM; in [10] it was above 10000 nM. Moreover, the permeability in [22] was 75%. Further, in data set [11], the outcome was inactive.
As for `CO[C@H]1C[C@@H](C)C/C(C)=C/[C@@H](CCCC(=O)N2CCC(CO)CC2)C(=O)C[C@H](O)[C@@H](C)[C@@H](/C(C)=C/[C@@H]2CC[C@@H](OCCO)[C@H](OC)C2)OC(=O)[C@@H]2CCCCN2C(=O)C(=O)[C@]2(O)O[C@H]1[C@@H](OC)C[C@H]2C`, the Activity entry in data set [3] is reported as “Non-Toxic”; in [4], 24%; in data set [9] it was 81.7%. The inhibition result in [5] is “inactive”. Moreover, the IC50 in data set [6] is above 100000 nM; in data set [7], above 100000 nM; in data set [8] it was 23.6 nM; in data set [10] it was above 10000 nM. This compound returned a permeability in data set [22] of 75%. Moreover, the result in data set [11] was inactive.

For the origin of these results see ChEMBL document CHEMBL4017474, “A calcineurin antifungal strategy with analogs of FK506” (Bioorg Med Chem Lett, 2017).
